Converted amounts (≈) assume the structure as drawn.
Columns and labels:
mice [1] = assay: Light Dark Box test (anxiolytic effect); type: in vivo; conditions: per os 1 hour before the test
Text: The light dark paradigm is based on a conflict between the innate aversion of rodents to brightly illuminated areas and on the spontaneous exploratory behaviour of the mice. If given a choice between a large brightly compartment versus a small dark compartment they spontaneously prefer the dark part.
The apparatus consists of two PVC (polyvinylchloride) boxes (19×19×15 cm) covered with Plexiglas. One of these boxes is darkened. The other box is illuminated by 100 W desk lamp placed 15 cm above and providing an illumination of about 4400 Lux. An opaque plastic tunnel (5×7×10 cm) separates the dark box from the illuminated one.
Animals were placed individually in the lit box, with head directed towards the tunnel. The time spent in the lit box and the number of transitions between the two boxes was recorded over a 5 min period after the first entry of the animal in the dark box. The total walked distance in the lit box was also recorded. Animals scored without entry into the […] were excluded from the analysis.
(§1) Test compound was prepared in aqueous vehicle containing 0.5% w/v hydroxypropylmethyl cellulose, 0.5% v/v benzyl alcohol and 0.4% v/v Tween 80. It was administrated per os 1 hour before the implementation of the test.

mice [2] = assay: Modified Open Field (Dark), sedative or stimulating effect; type: in vivo; conditions: tested at 5-100 mg/kg, per os 1 hour before the test
Text: The open field (dark) is used to measure the spontaneous motor activity of mice in a quiet, dark environment. This system is useful for discriminating the sedating or stimulating properties of test compounds on spontaneous locomotion and can thus provide a preliminary indication of potentially adverse effects such as sedation.
The apparatus is an open plexiglass cage (52×52 cm) with 40 cm walls. The animal's movements are tracked by a computerised video tracking system, consisting of an overhead camera, diode sensors placed underneath the floor of the cage, computer and video analyser software (ViewPoint, France). The video camera is placed at 2.50 m above the cage and connected to the computer via a video capture card (Pinnacle Systems, France). The video tracking system is set in a way that the floor of the OF is divided into nine equal squares. The total number of crossed squares and the total walked distance are recorded.
Each animal is singly placed in a corner of the apparatus and its locomotor activity is automatically recorded over a period of 20 minutes.
The apparatus is cleaned between each animal with alcohol (70%).
as §1

rat = assay: Elevated Plus Maze; type: in vivo; conditions: per os 1 hour before the test
Text: The Elevated Plus Maze (EPM) situation rests on the conflict between the innate tendencies of rodents to explore novel environments and avoid open and brightly lit areas. In this task the mouse is placed in the centre of the maze. From here it can walk down any of four runways. Two of the arms are well lit and open, and the other two are enclosed and dimly lit. Mice prefer the closed arms but will venture out into the open arms. The amount of time spent in the open arms and the number of times the mice enter the open arms are recorded. The total walked distance in the open arms is also recorded. “Anxious” mice will spend little time in the open arms and make very few entries into the open arms.
The apparatus is made of polyvinylchloride materials and consists of four equal exploratory arms (45×10 cm) which are all interconnected by a small platform (10×10 cm). Two arms are open and two others are closed with walls (30 cm high). The apparatus is placed 66 cm above the floor. A videotracking system is used to record the test (ViewPoint, France). […]
A trial consists of placing an animal on the central platform facing a closed arm. The number of entries and the duration spent in open arms are automatically recorded by a videotrack system during an 5 minutes period. […]

mice [3] = assay: Marble Burying; type: in vivo; conditions: per os 1 hour before the test
Text: The Marble Burying test is used as a model for both anxiety and obsessive compulsive disorders. Mice have a natural tendency to bury marbles under the bedding when placed in a cage with rows of evenly spaced marbles on the floor. Suppression of this spontaneous burying has been used as a measure of anxiolytic drug action. Mice pre-treated with benzodiazepines and different classes of antidepressants bury less marbles when compared to the control mice
The apparatus consists of transparent polycarbonate cages (30 cm×18 cm×19 cm) containing a 5 cm layer of fine sawdust bedding and 20 glass marbles (diameter: 1.5 cm) spaced evenly along the walls of the cage. Each animal is placed individually in the cage where it remains for a 20 min test session. On termination of the test session the animals are removed from the cage and the number of marbles at least two-thirds buried in the sawdust is recorded.
as §1

mice [4] = assay: Forced Swim Test (antidepressant properties); type: in vivo; conditions: per os 1 hour before the test
Text: The forced swim test is the most widely used paradigm for the evaluation of potential antidepressant effect of drugs. Animals placed in a container filled with water show periods of increased swimming activity and periods of relative immobility. Immobile posture reflects a state of tiredness, fatigue, reduced stamina or a lowered mood (hopelessness) similar to the core symptoms observed in depressed patients and in individuals under intense stress. […] The test has some predictive value for anti-depressant drugs. The apparatus consists of a glass cylinder (height 35 cm; diameter 24 cm) filled with water (depth: 25 cm, temperature: 25±1° C.).
as §1

cortical neurons = assay: Neurite outgrowth assay; type: cell-based; conditions: rat cortical neurons, 3 days exposure, tested at 1 nM, 10 nM and 100 nM
Experimental: Female rats of 17 days gestation were killed by cervical dislocation and the foetuses were removed from the uterus. Their brains were placed in ice-cold medium of Leibovitz (L15, Gibco, Fisher bioblock, France). Cortex were dissected and meninges were carefully removed. The cortical neurons were dissociated by trypsinization for 30 min at 37° C. (trypsin-EDTA Gibco) in presence of 0.1 mg/ml DNAse I (Roche, France). The reaction was stopped by addition of Dulbecco's Modified Eagle Medium (DMEM; Gibco) with 10% of fetal bovine serum (FBS; Gibco). The suspension was triturated with a 10-ml pipette and using a 21G needle and syringe, and centrifuged at 350×g for 10 min at room temperature. The pellet of dissociated cells was resuspended in medium consisting of Neurobasal (Gibco) supplemented with 2% B27 supplement (Gibco), 0.5 mM L-Glutamine (Gibco), an antibiotic-antimicotic mixture. Viable cells were counted in a Neubauer cytometer using the trypan blue exclusion test (Sigma). Cells were seeded on the basis of 30000 cells per Petri dish (ø35 mm, Nunc) precoated with poly-L-lysine. […]
A global analysis of the data was performed using a one way analysis of variance (ANOVA), followed by Fisher's Protected Least Significant Difference when applicable. […] All results were expressed as mean±sem. […]

Kinetic solubility = type: physicochemical; conditions: kinetic from dmso stock
logD7.4 = type: physicochemical; conditions: pH 7.4

solubility kinetic (Kinetic solubility; pH 2, simulated gastric fluid) [µg/mL]	solubility kinetic (Kinetic solubility; pH 6.5, aqueous buffer) [µg/mL]	logD (logD7.4)	Compound	Light Dark Box MED (Minimum Effective Dose) (mice [1])	Open Field (Dark) sedation (mice [2])	Elevated Plus Maze MED (Minimum Effective Dose) (rat)	Marble Burying MED (Minimum Effective Dose) (mice [3])	Forced Swim Test MED (Minimum Effective Dose) (mice [4])	Neurite outgrowth: significant effect at concentrations (cortical neurons)
			Cc1nc2ccc(NC3Cc4ccccc4C3)cc2c(-c2ccccc2)c1C(=O)N1CCOCC1 [Example 2]	MED 10 mg/kg					
25 to 50 (≈ 63.4 to 127 µM)	50 to 100 (≈ 127 to 254 µM)	2	Cc1nc2ccc(NC3Cc4ccccc4C3)cc2c(-c2ccccc2)c1C(=O)O [Example 1, 6-(2,3-dihydro-1H-inden-2-ylamino)-2-methyl-4-phenylquinoline-3-carboxylic acid]	MED 0.1 mg/kg	No Sedation	MED 0.1 mg/kg	MED 0.1 mg/kg	MED 10 mg/kg	≦100 nM
